Legend:
[1] = tested on: Human ES cells (KhES-1); assay: Production of retinal pigment epithelium from human ES cell aggregates; type: cell-based; details: Matrigel and serum steps
Procedure: Human ES cells (KhES-1) were cultured according to the methods described in “Ueno, M. et al. PNAS 2006”, “Watanabe, K. et al. Nat Biotech 2007” and used for the experiment. As the medium, DMEM/F12 medium (Invitrogen) added with 20% KSR (Knockout Serum Replacement; Invitrogen), 0.1 mM 2-mercaptoethanol, 1 mM pyruvic acid, and 5 to 10 ng/ml bFGF was used. For the formation of retinal tissue by floating culture, the ES cells were dispersed into single cells by using 0.25% trypsin-EDTA (Invitrogen), suspended in a serum-free medium (100 μl) to 9×10^3 cells per well of a non-cell adhesive 96-well culture plate (SUMILON spheroid plate, SUMITOMO BAKELITE CO., LTD.) to allow for rapid formation of aggregates, and floating cultured at 37° C., 5% CO2. As the serum-free medium in this case, a serum-free medium obtained by adding 20% KSR, 0.1 mM 2-mercaptoethanol, 1 mM pyruvic acid, 20 μM Y27632 and a substance inhibiting the Wnt signal pathway (3 μM IWR1e) to G-MEM medium was used. Matrigel was added in an amount of 1/100 per volume from day 2 of the floating culture and floating culture was performed. The aggregate was transferred to a serum-free medium without containing a substance inhibiting the Wnt signal pathway on day 12 from the start of the floating culture, fetal calf serum in an amount of 1/10 per volume was added and cultured. […]

[2] = tested on: RAX::GFP knock-in human ES cells; assay: Production of optic-cup-like structure from human ES cell aggregates; type: cell-based; details: 3 μM CHIR99021 and 100 nM SAG together in serum-containing medium from day 15
Procedure: RAX::GFP knock-in human ES cells (derived from KhES-1) were cultured according to the methods described in “Ueno, M. et al. PNAS 2006”, “Watanabe, K. et al. Nat Biotech 2007” and used for the experiment. As the medium, DMEM/F12 medium (Invitrogen) added with 20% KSR (Knockout Serum Replacement; Invitrogen), 0.1 mM 2-mercaptoethanol, 1 mM pyruvic acid, and 5 to 10 ng/ml bFGF was used. For the formation of aggregate by floating culture, the ES cells were dispersed into single cells by using 0.25% trypsin-EDTA (Invitrogen), suspended in a serum-free medium (100 μl) to 9×10^3 cells per well of a non-cell adhesive 96-well culture plate (SUMILON spheroid plate, SUMITOMO BAKELITE CO., LTD.) to allow for rapid formation of aggregates, and floating cultured at 37° C., 5% CO2. As the serum-free medium in this case, a serum-free medium obtained by adding 20% KSR, 0.1 mM 2-mercaptoethanol, 1 mM pyruvic acid, 20 μM Y27632 and a substance inhibiting the Wnt signal pathway (3 μM IWR1e) to G-MEM medium was used. During the floating culture, Matrigel in an amount of 1/100 per volume was added from day 2 from the start of the floating culture. The floating aggregate was transferred to a serum-free medium without a substance inhibiting the Wnt signal pathway on day 12 from the start of the floating culture, fetal calf serum in an amount of 1/10 per volume was added and the aggregate was cultured. […]

Cc1c[nH]c(-c2cnc(NCCNc3ccc(C#N)cn3)nc2-c2ccc(Cl)cc2Cl)n1 [CHIR99021]
retinal pigment epithelium on aggregates (bright-field) ([1]; 3 μM CHIR99021 from day 15, after IWR1e): emerged on almost all surfaces of the aggregates
optic-cup-like structure formation on aggregate [2]: a clear optic-cup-like structure was formed

Activin A: substance acting on the Activin signal pathway; Recombinant Human/Mouse/Rat Activin A (R&D systems #338-AC)
retinal pigment epithelia on aggregates (bright-field) ([1]; Activin A 100 ng/ml with 3 μM CHIR99021 from day 15, after IWR1e): almost all the surfaces of the aggregates were covered with retinal pigment epithelia
